Legend:
[1] = molecular target: T1, HCV NS5B RdRp genotype 1b (Hepatitis C virus genotype 1b, UniProt Q9WMX2); assay: Standard HCV NS5B RdRp enzyme assay; format: biochemical; settings: Table 1b; HCV NS5B RdRp genotype 1b; read-out: IC50
T1 construct: The protein was expressed with an 18 amino acid C-terminal truncation to enhance the solubility; made in house; host or cells: E. coli BL21(DE3), pET21a vector
Method in brief: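 C-terminally truncated (18 aa) genotype 1b NS5B from E. coli, 28 nM, with 6 nM polyA template, 180 nM biotinylated oligo-dT12 primer and 3H-UTP (0.29 μM total UTP). Hepes pH 7.5 buffer with 2% DMSO; 60 min at 30° C. EDTA stop, SPA read-out; IC50 from seven concentrations by four-parameter fit.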

HCV replicon cells = assay: HCV replicon FRET / luciferase assay (96-well plates); format: cell-based; settings: Hepatitis C virus, Table 1b; HCV replicon; read-out: EC50
Method in brief: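 Trypsinized replicon cells were seeded with compound titrations and incubated at 37 °C for various times. Alamar blue was added to gauge toxicity. Plates were then rinsed and either lysed with FRET peptide reagent for kinetic fluorescence reading or switched to phenol red-free DMEM for luciferase measurement.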

T1 sequence (Q9WMX2 2420-2992): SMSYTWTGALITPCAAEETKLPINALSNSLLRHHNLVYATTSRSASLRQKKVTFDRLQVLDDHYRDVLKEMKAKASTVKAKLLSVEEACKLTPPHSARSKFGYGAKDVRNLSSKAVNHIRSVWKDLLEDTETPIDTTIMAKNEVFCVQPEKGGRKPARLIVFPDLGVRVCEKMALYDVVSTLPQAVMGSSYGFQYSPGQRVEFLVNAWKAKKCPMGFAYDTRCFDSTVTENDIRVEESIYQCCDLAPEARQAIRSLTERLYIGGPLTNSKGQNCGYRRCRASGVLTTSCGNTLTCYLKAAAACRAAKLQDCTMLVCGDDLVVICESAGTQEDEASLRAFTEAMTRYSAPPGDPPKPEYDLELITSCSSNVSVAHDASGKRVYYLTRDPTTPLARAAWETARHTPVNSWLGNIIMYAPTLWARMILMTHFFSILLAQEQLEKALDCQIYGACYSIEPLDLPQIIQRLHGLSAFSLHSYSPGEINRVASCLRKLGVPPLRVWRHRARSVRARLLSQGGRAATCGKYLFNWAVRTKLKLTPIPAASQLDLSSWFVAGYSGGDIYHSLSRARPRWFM

Row | SMILES | IC50 [1] [nM] | EC50 (HCV replicon cells) [nM]
1 | CCCOc1ccc(C(=O)NCC(C)C)cc1-c1ccc2oc(-c3ccc(F)cc3)c(C(=O)NC)c2c1 | 1000 to 10000 | 250 to 1000
2 | CNC(=O)c1c(-c2ccc(F)cc2)oc2ccc(-c3cc(C(=O)NCC(C)C)ccc3OCCC(C)C)cc12 | > 10000 | 1000 to 10000
3 | CNC(=O)c1c(-c2ccc(F)cc2)oc2cc(N)c(-c3cc(C(=O)NCC(C)C)ccc3OC)cc12 | < 250 | < 250
4 | CNC(=O)c1c(-c2ccc(F)cc2)oc2cc([N+](=O)[O-])c(-c3cc(C(=O)NC4(c5ccccc5)CC4)ccc3F)cc12 | < 250 | < 250
5 | CNC(=O)c1c(-c2ccc(F)cc2)oc2ccc(-c3cc(C(=O)NC4(c5ccccc5Cl)CC4)ccc3Cl)cc12 | 250 to 1000 | < 250
6 | CNC(=O)c1c(-c2ccc(F)cc2)oc2cc(N(C)S(C)(=O)=O)c(-c3cccc(C(=O)NC(C)(C)c4ccccc4)c3)cc12 | < 250 | < 250
7 | CCC(CC)(NC(=O)c1ccc(Cl)c(-c2ccc3oc(-c4ccc(F)cc4)c(C(=O)NC)c3c2)c1)c1ccccc1 | < 250 | < 250
8 | CNC(=O)c1c(-c2ccc(F)cc2)oc2cc(N)c(-c3cccc(C(=O)NCC(C)C)c3)cc12 | < 250 | < 250
9 | CNC(=O)c1c(-c2ccc(F)cc2)oc2ccc(-c3cc(C(=O)NCC(C)C)ccc3OCCOC)cc12 | 250 to 1000 | < 250
10 | CNC(=O)c1c(-c2ccc(F)cc2)oc2cc(N(CCO)S(C)(=O)=O)c(-c3cccc(C(=O)NC(C)(C)C)c3)cc12 | < 250 | < 250
11 | CNC(=O)c1c(-c2ccc(F)cc2)oc2cc(N(CCO)S(C)(=O)=O)c(-c3cccc(C(=O)NC4(c5ccccn5)CC4)c3)cc12 | < 250 | < 250
12 | CNC(=O)c1c(-c2ccc(F)cc2)oc2cc(N(CCO)S(C)(=O)=O)c(-c3cccc(C(=O)NC4(c5ccccc5)CC4)c3)cc12 | < 250 | < 250
13 | CNC(=O)c1c(-c2ccc(F)cc2)oc2cc(N(CCO)S(C)(=O)=O)c(-c3cccc(C(=O)NC4(c5ccc(F)cc5)CC4)c3)cc12 | < 250 | < 250
14 | CNC(=O)c1c(-c2ccc(F)cc2)oc2cc(N(CCO)S(C)(=O)=O)c(-c3cccc(C(=O)NC(C)(C)c4ccc(F)cc4)c3)cc12 | < 250 | < 250
15 | CNC(=O)c1c(-c2ccc(F)cc2)oc2ccc(-c3cc(C(=O)N4CCC5(CC4)OCc4ccccc45)ccc3Cl)cc12 | 1000 to 10000 | 1000 to 10000
16 | CNC(=O)c1c(-c2ccc(F)cc2)oc2ccc(-c3cccc(C(=O)NC4(c5ccc(Cl)cc5)CC4)c3)cc12 | < 250 | < 250
17 | CNC(=O)c1c(-c2ccc(F)cc2)oc2ccc(-c3cccc(C(=O)NC(C)(C)c4ccc(Cl)cc4)c3)cc12 | < 250 | < 250
18 | CNC(=O)c1c(-c2ccc(F)cc2)oc2ccc(-c3cccc(C(=O)NC(C)(C)c4ccncc4)c3)cc12 | < 250 | < 250
19 | CNC(=O)c1c(-c2ccc(F)cc2)oc2ccc(-c3cc(C(=O)NCC(C)C)ccc3OCCc3ccc(O)cc3)cc12 | 250 to 1000 | 250 to 1000
20 | CNC(=O)c1c(-c2ccc(F)cc2)oc2ccc(-c3cc(C(=O)NCC(C)C)ccc3OCCCn3cccc3)cc12 | 1000 to 10000 | 250 to 1000
21 | CNC(=O)c1c(-c2ccc(F)cc2)oc2ccc(-c3cc(C(=O)NCC(C)C)ccc3OCCc3ccc(Cl)cc3)cc12 | > 10000 | > 10000
22 | CNC(=O)c1c(-c2ccc(F)cc2)oc2ccc(-c3cc(C(=O)NCC(C)C)ccc3OCC(N)=O)cc12 | < 250 | < 250
23 | CNC(=O)c1c(-c2ccc(F)cc2)oc2ccc(-c3cc(C(=O)NCC(C)C)ccc3OCCCN3CCOCC3)cc12 | < 250 | < 250
24 | CNC(=O)c1c(-c2ccc(F)cc2)oc2ccc(-c3cc(C(=O)NCC(C)C)ccc3OCCN3CCOCC3)cc12 | < 250 | < 250
25 | CNC(=O)c1c(-c2ccc(F)cc2)oc2ccc(-c3cc(C(=O)NCC(C)C)ccc3OCc3ccccn3)cc12 | < 250 | < 250
26 | CNC(=O)c1c(-c2ccc(F)cc2)oc2ccc(-c3cc(C(=O)NCC(C)C)ccc3OCCN3CCCC3)cc12 | < 250 | < 250

Row | SMILES | IC50 [1] [nM] | EC50 (HCV replicon cells) [nM]
27 | CNC(=O)c1c(-c2ccc(F)cc2)oc2ccc(-c3cc(C(=O)NCC(C)C)ccc3OCCN3CCCCC3)cc12 | 250 to 1000 | < 250
28 | CNC(=O)c1c(-c2ccc(F)cc2)oc2ccc(-c3cc(C(=O)NCC(C)C)ccc3OCCc3ccccn3)cc12 | 250 to 1000 | < 250
29 | CNC(=O)c1c(-c2ccc(F)cc2)oc2ccc(-c3cc(C(=O)NCC(C)C)ccc3OCc3c[nH]c(C)n3)cc12 | < 250 | < 250
30 | CNC(=O)c1c(-c2ccc(F)cc2)oc2ccc(-c3cc(C(=O)NCC(C)C)ccc3OCc3ccc(C(F)(F)F)cn3)cc12 | > 10000 | > 10000
31 | CNC(=O)c1c(-c2ccc(F)cc2)oc2ccc(-c3cc(C(=O)NCC(C)C)ccc3OCc3c[nH]cn3)cc12 | < 250 | < 250
32 | CNC(=O)c1c(-c2ccc(F)cc2)oc2ccc(-c3cc(C(=O)NCC(C)C)ccc3OCc3cn(C)cn3)cc12 | 1000 to 10000 | 250 to 1000
33 | CCCC#CCOc1ccc(C(=O)NCC(C)C)cc1-c1ccc2oc(-c3ccc(F)cc3)c(C(=O)NC)c2c1 | 1000 to 10000 | 1000 to 10000
34 | CNC(=O)c1c(-c2ccc(F)cc2)oc2ccc(-c3cc(C(=O)NCC(C)C)ccc3OCC(F)F)cc12 | 250 to 1000 | < 250
35 | CNC(=O)c1c(-c2ccc(F)cc2)oc2ccc(-c3cc(C(=O)NCC(C)C)ccc3OCc3ccnc(Br)c3)cc12 | 250 to 1000 | 250 to 1000
36 | CNC(=O)c1c(-c2ccc(F)cc2)oc2ccc(-c3cc(C(=O)NCC(C)C)ccc3OCCO)cc12 | < 250 | < 250
37 | CNC(=O)c1c(-c2ccc(F)cc2)oc2ccc(-c3cc(C(=O)NCC(C)C)ccc3OCCc3c(C)n[nH]c3C)cc12 | < 250 | < 250
38 | CNC(=O)c1c(-c2ccc(F)cc2)oc2ccc(-c3cccc(C(=O)NC(C)(C)c4cccnc4)c3)cc12 | < 250 | < 250
39 | CNC(=O)c1c(-c2ccc(F)cc2)oc2cc(N(CCO)S(C)(=O)=O)c(-c3cc(C(=O)NC4(c5ccccc5)CC4)ccc3F)cc12 | < 250 | < 250
40 | CNC(=O)c1c(-c2ccc(F)cc2)oc2ccc(-c3cc(C(=O)NCC(C)C)ccc3OCCc3c[nH]c4ccccc34)cc12 | 1000 to 10000 | 1000 to 10000
41 | CNC(=O)c1c(-c2ccc(F)cc2)oc2ccc(-c3cc(C(=O)NCC(C)C)ccc3OCCCN3CCN(C)CC3)cc12 | < 250 | < 250
42 | CCC(O)COc1ccc(C(=O)NCC(C)C)cc1-c1ccc2oc(-c3ccc(F)cc3)c(C(=O)NC)c2c1 (stereo not drawn) | 250 to 1000 | 250 to 1000
43 | CNC(=O)c1c(-c2ccc(F)cc2)oc2ccc(-c3cc(C(=O)NCC(C)C)ccc3OCC(C)O)cc12 (stereo not drawn) | < 250 | < 250
44 | CNC(=O)c1c(-c2ccc(F)cc2)oc2ccc(-c3cc(C(=O)NCC(C)C)ccc3OCCC3CCCCN3)cc12 (stereo not drawn) | < 250 | < 250
45 | CNC(=O)c1c(-c2ccc(F)cc2)oc2ccc(-c3cc(C(=O)NCC(C)C)ccc3OCc3ccncc3)cc12 | < 250 | < 250
46 | CNC(=O)c1c(-c2ccc(F)cc2)oc2ccc(-c3cc(C(=O)NCC(C)C)ccc3OCC3CCCN3C(=O)OC(C)(C)C)cc12 (stereo not drawn) | > 10000 | 1000 to 10000
47 | CNC(=O)c1c(-c2ccc(F)cc2)oc2ccc(-c3cc(C(=O)NCC(C)C)ccc3OCC3CCCN3)cc12 (stereo not drawn) | < 250 | 250 to 1000
48 | CNC(=O)c1c(-c2ccc(F)cc2)oc2cc(N(CCO)S(C)(=O)=O)c(-c3cccc(C(=O)NC(C)(C)C(=O)Nc4cc(C)no4)c3)cc12 | < 250 | < 250
49 | CNC(=O)c1c(-c2ccc(F)cc2)oc2ccc(-c3cc(OC)cc(C(=O)NCC(C)C)c3)cc12 | 250 to 1000 | 250 to 1000
50 | CNC(=O)c1c(-c2ccc(F)cc2)oc2ccc(-c3cc(C(=O)NCC(C)C)ccc3OCCN)cc12 | < 250 | < 250
51 | CNC(=O)c1c(-c2ccc(F)cc2)oc2ccc(-c3cc(C(=O)NCC(C)C)cc(-c4ccccc4)c3)cc12 | > 10000 | > 10000
